Data published in ChEMBL document CHEMBL1201862, “PubChem BioAssay data set” (2004).
Activity calls are given as the source filed them.

Tests used:
[1] = molecular target: T1, Polyadenylate-binding protein 1 (Homo sapiens, UniProt P11940); test: MLLE binding blockers, Cy5 peptide tracer – biochemical, fluorescence polarization, Cy5-PAM2 peptide, secondary, miRNA deadenylation inhibitor project, dose response (AID 602260); format: functional; conditions: read-out: IC50_Mean
[2] = molecular target: T1, Polyadenylate-binding protein 1; test: MLLE domain peptide-binding blockers, IC50 – biochemical, fluorescence polarization, FITC-PAM2 peptide, dose response (AID 602259); format: functional; conditions: read-out: IC50_Mean
[3] = molecular target: T2, Zinc finger protein mex-5 (Caenorhabditis elegans, UniProt Q9XUB2); test: potency of MEX-5 RNA-binding blockers – biochemical, C. elegans, fluorescence polarization, dose response (AID 1960)
T2 sequence (Q9XUB2 whole entry): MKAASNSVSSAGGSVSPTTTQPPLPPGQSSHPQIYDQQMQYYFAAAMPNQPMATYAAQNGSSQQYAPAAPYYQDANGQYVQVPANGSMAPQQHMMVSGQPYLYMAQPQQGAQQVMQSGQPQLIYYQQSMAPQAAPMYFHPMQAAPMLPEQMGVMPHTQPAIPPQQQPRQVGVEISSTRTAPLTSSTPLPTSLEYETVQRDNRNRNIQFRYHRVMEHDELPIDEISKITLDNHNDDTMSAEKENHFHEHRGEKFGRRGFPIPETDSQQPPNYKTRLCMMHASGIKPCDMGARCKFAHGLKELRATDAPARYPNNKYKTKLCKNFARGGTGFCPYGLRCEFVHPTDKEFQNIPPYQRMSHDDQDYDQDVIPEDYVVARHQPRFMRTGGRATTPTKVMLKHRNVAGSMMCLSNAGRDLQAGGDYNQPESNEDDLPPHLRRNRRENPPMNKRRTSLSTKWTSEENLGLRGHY

[4] = molecular target: T3, RNA-binding protein pos-1 (Caenorhabditis elegans, UniProt G5EF15); test: disruptors of C. elegans POS-1 RNA interaction – biochemical, fluorescence polarization, dose response (AID 1964);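 note: purified POS-1 fused to maltose binding protein made in E. coli; potency of compounds blocking POS-1 binding to fluorescent RNA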
T3 sequence (G5EF15 whole entry): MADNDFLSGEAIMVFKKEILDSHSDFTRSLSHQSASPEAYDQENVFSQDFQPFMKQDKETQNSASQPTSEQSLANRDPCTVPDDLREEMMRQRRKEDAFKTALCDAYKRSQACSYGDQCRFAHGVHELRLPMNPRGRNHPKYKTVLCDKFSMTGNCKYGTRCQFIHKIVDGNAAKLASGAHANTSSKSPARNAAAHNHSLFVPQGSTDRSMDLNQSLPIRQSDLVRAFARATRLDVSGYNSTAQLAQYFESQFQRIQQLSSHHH

[5] = molecular target: Induced myeloid leukemia cell differentiation protein Mcl-1 (Homo sapiens, UniProt Q07820); format: functional
cells [6] = format: functional
cells [7] = format: functional, cell-based
cells [8] = format: functional, cell-based; remark: listed apart in the source
[9] = molecular target: T4, Rac GTPase-activating protein 1 (Homo sapiens, UniProt Q9H0H5); test: blockers of MgcRacGAP-driven Rac1 GTP hydrolysis – biochemical, ADP Hunter fluorescence, primary and confirmatory, confirmation (AID 624330); format: functional
T4 sequence (Q9H0H5 whole entry): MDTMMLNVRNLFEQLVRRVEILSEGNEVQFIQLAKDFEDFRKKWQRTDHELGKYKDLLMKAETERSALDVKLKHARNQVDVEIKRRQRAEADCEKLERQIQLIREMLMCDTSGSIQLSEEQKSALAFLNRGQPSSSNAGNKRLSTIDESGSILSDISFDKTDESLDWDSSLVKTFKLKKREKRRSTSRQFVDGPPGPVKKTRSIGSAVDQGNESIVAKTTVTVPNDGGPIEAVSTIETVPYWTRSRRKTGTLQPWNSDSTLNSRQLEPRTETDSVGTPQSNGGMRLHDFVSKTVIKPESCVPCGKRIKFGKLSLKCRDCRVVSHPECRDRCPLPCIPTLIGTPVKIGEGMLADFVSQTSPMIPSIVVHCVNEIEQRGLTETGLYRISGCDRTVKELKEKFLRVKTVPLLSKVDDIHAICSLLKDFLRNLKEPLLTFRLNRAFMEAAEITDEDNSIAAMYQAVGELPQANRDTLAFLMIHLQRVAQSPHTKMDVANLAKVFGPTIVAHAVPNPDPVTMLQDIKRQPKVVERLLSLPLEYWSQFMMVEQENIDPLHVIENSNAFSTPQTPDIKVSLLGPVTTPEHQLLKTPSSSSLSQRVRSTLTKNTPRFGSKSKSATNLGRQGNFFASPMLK

Large T antigen = Large T antigen (Simian virus 40, UniProt P03070); format: functional, Betapolyomavirus macacae;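 note: Confirmatory-stage PubChem screen for compounds that inhibit SV40 T antigen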
[10] = molecular target: T5, Corticotropin-releasing factor receptor 2/Corticotropin-releasing factor-binding protein (Homo sapiens, UniProt P24387+Q13324); test: activators of CRF receptor 2 with binding protein – uHTS hits, confirmation (AID 602473); format: functional; conditions: read-out: EC50_Mean
T5 sequence (Q13324 whole entry): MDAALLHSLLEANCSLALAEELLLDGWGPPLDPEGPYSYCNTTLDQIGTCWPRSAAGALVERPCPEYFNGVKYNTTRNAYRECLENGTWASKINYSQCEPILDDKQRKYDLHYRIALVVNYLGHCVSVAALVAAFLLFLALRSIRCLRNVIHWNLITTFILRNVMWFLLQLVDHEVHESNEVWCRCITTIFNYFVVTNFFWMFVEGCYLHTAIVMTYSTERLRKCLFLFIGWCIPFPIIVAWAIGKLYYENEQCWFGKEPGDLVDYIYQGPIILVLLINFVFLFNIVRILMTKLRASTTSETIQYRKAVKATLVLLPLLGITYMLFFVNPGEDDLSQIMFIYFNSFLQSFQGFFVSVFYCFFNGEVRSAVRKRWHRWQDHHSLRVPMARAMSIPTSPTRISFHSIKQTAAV
T5 sequence (P24387 whole entry): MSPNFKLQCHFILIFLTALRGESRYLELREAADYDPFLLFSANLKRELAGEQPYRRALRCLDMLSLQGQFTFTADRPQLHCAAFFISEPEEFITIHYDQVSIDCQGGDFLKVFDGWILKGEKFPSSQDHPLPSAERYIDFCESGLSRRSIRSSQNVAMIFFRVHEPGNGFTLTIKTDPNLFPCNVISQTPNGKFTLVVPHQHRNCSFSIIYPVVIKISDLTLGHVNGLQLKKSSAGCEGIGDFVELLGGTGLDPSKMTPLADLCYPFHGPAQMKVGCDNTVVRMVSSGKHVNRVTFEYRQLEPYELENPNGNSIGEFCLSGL

Cytochrome P450 2C9 = Cytochrome P450 2C9 (Homo sapiens, UniProt P11712)
Cytochrome P450 2C19 = Cytochrome P450 2C19 (Homo sapiens, UniProt P33261); test: Cytochrome panel assay with activity outcomes. Panel member name: p450-cyp2c19 Compounds with AC50 equal or less than 10 uM are considered active; format: functional
Cytochrome P450 2C19, sequence (P33261 whole entry): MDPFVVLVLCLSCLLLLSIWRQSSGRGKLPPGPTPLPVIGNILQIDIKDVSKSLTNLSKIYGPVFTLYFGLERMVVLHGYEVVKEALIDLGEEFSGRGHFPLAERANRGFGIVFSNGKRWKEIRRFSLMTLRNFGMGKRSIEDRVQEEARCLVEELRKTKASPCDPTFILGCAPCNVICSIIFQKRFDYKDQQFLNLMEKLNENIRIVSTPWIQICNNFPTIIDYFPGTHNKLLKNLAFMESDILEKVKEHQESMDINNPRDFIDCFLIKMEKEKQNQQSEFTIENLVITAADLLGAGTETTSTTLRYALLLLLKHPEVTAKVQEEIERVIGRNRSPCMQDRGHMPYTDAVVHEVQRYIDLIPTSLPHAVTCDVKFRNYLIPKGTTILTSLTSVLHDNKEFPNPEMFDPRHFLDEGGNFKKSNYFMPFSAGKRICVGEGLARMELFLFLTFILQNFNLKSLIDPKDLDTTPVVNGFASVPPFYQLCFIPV

Large T antigen, sequence (P03070 whole entry): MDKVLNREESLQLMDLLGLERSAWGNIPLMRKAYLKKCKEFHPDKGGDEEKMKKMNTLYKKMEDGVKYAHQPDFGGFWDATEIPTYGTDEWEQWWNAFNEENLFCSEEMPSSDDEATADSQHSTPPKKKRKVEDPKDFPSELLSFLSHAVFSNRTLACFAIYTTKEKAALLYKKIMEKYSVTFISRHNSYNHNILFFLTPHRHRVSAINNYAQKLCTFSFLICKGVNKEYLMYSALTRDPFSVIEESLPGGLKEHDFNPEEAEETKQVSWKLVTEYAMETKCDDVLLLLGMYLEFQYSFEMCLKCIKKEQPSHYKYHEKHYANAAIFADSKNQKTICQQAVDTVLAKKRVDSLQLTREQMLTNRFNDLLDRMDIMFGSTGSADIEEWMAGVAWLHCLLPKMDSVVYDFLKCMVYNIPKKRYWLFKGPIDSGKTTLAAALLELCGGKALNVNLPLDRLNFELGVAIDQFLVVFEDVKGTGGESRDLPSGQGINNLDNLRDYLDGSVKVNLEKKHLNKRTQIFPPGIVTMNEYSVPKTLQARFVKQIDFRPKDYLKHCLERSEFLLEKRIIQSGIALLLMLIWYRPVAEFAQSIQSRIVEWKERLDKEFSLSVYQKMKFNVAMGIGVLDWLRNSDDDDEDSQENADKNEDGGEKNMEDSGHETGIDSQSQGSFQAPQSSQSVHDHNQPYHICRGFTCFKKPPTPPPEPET
T1 sequence (P11940 whole entry, the tested form may be a part): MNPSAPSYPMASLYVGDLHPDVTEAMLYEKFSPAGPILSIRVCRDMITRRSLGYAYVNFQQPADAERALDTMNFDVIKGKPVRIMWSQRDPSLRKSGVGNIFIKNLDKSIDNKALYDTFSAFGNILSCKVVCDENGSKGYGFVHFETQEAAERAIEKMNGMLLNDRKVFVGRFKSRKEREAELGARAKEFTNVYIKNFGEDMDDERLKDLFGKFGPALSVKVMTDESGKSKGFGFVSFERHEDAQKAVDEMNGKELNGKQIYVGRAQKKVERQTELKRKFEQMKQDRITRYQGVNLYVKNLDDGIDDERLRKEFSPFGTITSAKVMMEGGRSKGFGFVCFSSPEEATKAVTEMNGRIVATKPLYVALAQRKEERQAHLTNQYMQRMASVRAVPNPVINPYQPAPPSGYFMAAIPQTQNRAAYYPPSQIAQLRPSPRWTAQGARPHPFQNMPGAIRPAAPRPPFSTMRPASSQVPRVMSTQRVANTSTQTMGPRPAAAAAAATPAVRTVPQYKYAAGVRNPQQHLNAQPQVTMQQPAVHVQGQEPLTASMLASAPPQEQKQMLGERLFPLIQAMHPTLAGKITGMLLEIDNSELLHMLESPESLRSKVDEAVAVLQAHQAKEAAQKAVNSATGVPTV
Cytochrome P450 2C9, sequence (P11712 whole entry): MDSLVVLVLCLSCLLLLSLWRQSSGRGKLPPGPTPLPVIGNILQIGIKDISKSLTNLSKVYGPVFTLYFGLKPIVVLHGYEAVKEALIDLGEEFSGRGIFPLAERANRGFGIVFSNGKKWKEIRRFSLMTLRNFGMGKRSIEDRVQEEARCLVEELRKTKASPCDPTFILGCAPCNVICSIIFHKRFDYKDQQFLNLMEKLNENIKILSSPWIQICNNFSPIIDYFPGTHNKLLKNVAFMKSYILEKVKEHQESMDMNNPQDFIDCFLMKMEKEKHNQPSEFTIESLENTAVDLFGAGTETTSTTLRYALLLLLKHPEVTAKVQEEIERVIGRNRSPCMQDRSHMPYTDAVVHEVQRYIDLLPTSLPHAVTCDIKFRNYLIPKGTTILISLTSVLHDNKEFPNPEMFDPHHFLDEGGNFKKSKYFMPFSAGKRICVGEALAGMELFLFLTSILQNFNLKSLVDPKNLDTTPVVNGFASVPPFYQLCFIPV
Induced myeloid leukemia cell differentiation protein Mcl-1, sequence (Q07820 whole entry): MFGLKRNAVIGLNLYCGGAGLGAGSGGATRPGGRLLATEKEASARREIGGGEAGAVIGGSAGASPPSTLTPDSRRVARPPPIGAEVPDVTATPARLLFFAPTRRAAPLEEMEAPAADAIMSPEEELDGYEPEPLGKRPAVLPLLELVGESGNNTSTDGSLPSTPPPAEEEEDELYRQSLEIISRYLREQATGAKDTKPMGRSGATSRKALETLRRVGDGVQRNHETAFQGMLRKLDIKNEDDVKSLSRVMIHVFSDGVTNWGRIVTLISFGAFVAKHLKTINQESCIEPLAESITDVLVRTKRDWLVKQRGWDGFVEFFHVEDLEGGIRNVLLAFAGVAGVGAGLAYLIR

O=C(CC(Sc1ccccc1)c1cccs1)c1ccco1 (stereo unspecified)
IC50 [1]: > 66 µM (inactive) | IC50 [2]: > 66 µM (inactive)

Cc1cc(/C=C(\C#N)C(=O)Nc2ccccc2)c(C)n1-c1ccc(C(=O)O)cc1
EC50 [3]: > 300 µM (not active) | EC50 [4]: > 300 µM (not active)

CCC(C)NCCCOc1c(C)cc(C)cc1Br (stereo unspecified)
IC50 [5]: 6.63 µM (not active)

CCn1c(-c2ccco2)nc2ccccc21
IC50 (cells [6]): > 50 µM (active)

CN(C1CCCC1)C1CCN(C(S)=Nc2cc(F)cc(F)c2)CC1
EC50 (cells [7]): > 350 µM (not active) | EC50 (cells [8]): > 350 µM (not active)

CCn1nc(C)c(/C=C2\CCCC3=C2OC(N)=C(C#N)C3c2c(C)nn(CC)c2C)c1C (stereo unspecified)
EC50 [3]: 51.8 µM (active) | EC50 [4]: 36 µM (active)

COc1cc(SC)ccc1C(=O)NCCc1ccccc1
EC50 (cells [7]): > 350 µM (not active) | EC50 (cells [8]): 18.9 µM (active)

CN=C(S)Nc1ccc(Nc2ccccc2)cc1
IC50 [9]: 64.6 µM (active) | IC50 (Large T antigen): 12.3 µM (active)

Cc1cc(Oc2ccccc2)nc(N2CCOCC2)n1
EC50 (cells [7]): > 350 µM (not active) | EC50 (cells [8]): > 350 µM (not active)

Cc1ccc(C(=O)CNc2cccc([N+](=O)[O-])c2)cc1
IC50 [1]: > 66 µM (inactive) | IC50 [2]: > 66 µM (inactive)

CCOC(=O)c1cc(-c2ccc(N)cc2)sc1N
IC50 (Large T antigen): 9.87 µM (active)

N=C1/C(=C\c2ccc(O)cc2)C(=O)N=C2SC(CC(=O)N3CCCCC3)=NN12
IC50 (Large T antigen): 14.2 µM (active)

CCOc1ccc(-c2nn(-c3ccccc3)cc2/C=C2\SC(=S)N(C3CCS(=O)(=O)C3)C2=O)cc1 (stereo unspecified)
EC50 [3]: > 300 µM (not active) | EC50 [10]: 13.1 µM (active) | EC50 [4]: > 300 µM (not active)

O=C(CN1CCCCC1)Nc1nnc(-c2ccc([N+](=O)[O-])cc2)s1
AC50 (Cytochrome P450 2C9): 17.8 µM (inconclusive) | IC50 (cells [6]): 29.9 µM (active) | AC50 (Cytochrome P450 2C19): inconclusive
